Data reported in patent publication US10906897B2, “Microbiocidal heterobicyclic derivatives” (priority 2015, dated 2021).

Assays:
[1] = tested on: Sclerotinia sclerotiorum; assay: Sclerotinia sclerotiorum / liquid culture (cottony rot); details: read-out: control of Sclerotinia sclerotiorum
Experimental: Sclerotinia sclerotiorum/Liquid Culture (Cottony Rot)
Mycelia fragments of a newly grown liquid culture of the fungus are directly mixed into 5 nutrient broth (Vogels broth). After placing a (DMSO) solution of test compound into a microtiter plate (96-well format) the nutrient broth containing the fungal material is added. The test plates are incubated at 24° C. and the inhibition of growth is determined photometrically 3-4 days after application.

[2] = tested on: Monographella nivalis (Microdochium nivale); assay: Monographella nivalis (Microdochium nivale) / liquid culture (foot rot cereals); type: cell-based; details: 96 h, growth inhibition photometrically 4-5 days after application, compared to untreated control
[3] = tested on: Magnaporthe grisea (Pyricularia oryzae); assay: microbe, parasite or virus in culture; type: cell-based; details: read-out: control of Magnaporthe grisea
[4] = tested on: Magnaporthe grisea (Pyricularia oryzae); assay: whole plant or invertebrate; type: in vivo; details: foliar, read-out: control of Magnaporthe grisea
[5] = tested on: Gaeumannomyces graminis; assay: Gaeumannomyces graminis / liquid culture (Take-all of cereals); type: cell-based; details: growth inhibition photometrically 4-5 days after application, compared to untreated control
[6] = tested on: Glomerella lagenarium (Colletotrichum lagenarium); assay: Glomerella lagenarium (Colletotrichum lagenarium) / liquid culture (Anthracnose); type: cell-based; details: Colletotrichum orbiculare, growth inhibition photometrically 3-4 days after application, compared to untreated control
[7] = tested on: Botryotinia fuckeliana (Botrytis cinerea); assay: Botryotinia fuckeliana (Botrytis cinerea) / liquid culture (Gray mould); type: cell-based; details: growth inhibition photometrically 3-4 days after application, compared to untreated control
[8] = tested on: Fusarium culmorum; assay: microbe, parasite or virus in culture; type: cell-based; details: read-out: control of Fusarium culmorum
[9] = tested on: Mycosphaerella graminicola (Septoria tritici); assay: Mycosphaerella graminicola (Septoria tritici) / liquid culture (Septoria blotch); type: cell-based; details: Zymoseptoria tritici, growth inhibition photometrically 4-5 days after application, compared to untreated control

| SMILES | inhibition of growth at 20 ppm [1] | inhibition of growth at 20 ppm [2] | inhibition of growth at 60 ppm [3] | pest or weed control at 200 ppm [4] | inhibition of growth at 20 ppm [5] | inhibition of growth at 20 ppm [6] | melting point | inhibition of growth at 20 ppm [7] | inhibition of growth at 20 ppm [8] | inhibition of growth at 20 ppm [9] |
| --- | --- | --- | --- | --- | --- | --- | --- | --- | --- | --- |
| Cc1cccn2ncc(C3=NC(C)(C)C(F)(F)c4ccccc43)c12 [Compound E-69, 4,4-difluoro-3,3-dimethyl-1-(4-methylpyrazolo[1,5-a]pyridin-3-yl)isoquinoline] | ≥ 80% | ≥ 80% | ≥ 80% | ≥ 50% | ≥ 80% | ≥ 80% | 113 to 114 °C | ≥ 80% | ≥ 80% | – |
| Cc1ccc2c(C3=NC(C)(C)C(F)(F)c4ccccc43)cnn2c1 [Compound E-83, 4,4-difluoro-3,3-dimethyl-1-(6-methylpyrazolo[1,5-a]pyridin-3-yl)isoquinoline] | ≥ 80% | ≥ 80% | ≥ 80% | ≥ 50% | ≥ 80% | ≥ 80% | 105 to 107 °C | ≥ 80% | ≥ 80% | ≥ 80% |
| Cc1c(Cl)ccc2c(C3=NC(C)(C)C(F)(F)c4ccccc43)cnn12 [Compound E-91, 1-(6-chloro-7-methyl-pyrazolo[1,5-a]pyridin-3-yl)-4,4-difluoro-3,3-dimethyl-isoquinoline] | ≥ 80% | ≥ 80% | ≥ 80% | ≥ 50% | ≥ 80% | ≥ 80% | 166 to 168 °C | ≥ 80% | ≥ 80% | – |
| Cc1cccc2c(C3=NC(C)(C)C(F)(F)c4ccccc43)cnn12 [Compound E-66, 4,4-difluoro-3,3-dimethyl-1-(7-methylpyrazolo[1,5-a]pyridin-3-yl)isoquinoline] | ≥ 80% | ≥ 80% | ≥ 80% | ≥ 50% | ≥ 80% | ≥ 80% | – | ≥ 80% | ≥ 80% | – |
| Cc1ccn2c(C3=NC(C)(C)C(F)(F)c4ccccc43)cnc2c1C [Compound E-57, 1-(7,8-dimethylimidazo[1,2-a]pyridin-3-yl)-4,4-difluoro-3,3-dimethyl-isoquinoline] | ≥ 80% | ≥ 80% | ≥ 80% | ≥ 50% | – | ≥ 80% | 159 to 161 °C | ≥ 80% | ≥ 80% | – |
| CC1(C)N=C(c2cnn3c(Cl)cccc23)c2ccccc2C1(F)F [Compound E-93, 1-(7-chloropyrazolo[1,5-a]pyridin-3-yl)-4,4-difluoro-3,3-dimethyl-isoquinoline] | ≥ 80% | ≥ 80% | ≥ 80% | ≥ 50% | – | ≥ 80% | 129 to 132 °C | ≥ 80% | ≥ 80% | ≥ 80% |
| CC1(C)N=C(c2cnc3cc(I)ccn23)c2cccc(F)c2C1(C)C [Compound E-44, 5-fluoro-1-(7-iodoimidazo[1,2-a]pyridin-3-yl)-3,3,4,4-tetramethyl-isoquinoline] | – | ≥ 80% | – | – | – | ≥ 80% | – | ≥ 80% | ≥ 80% | ≥ 80% |
| CC1(C)N=C(c2cnn3cc(Br)ccc23)c2ccccc2C1=O [Compound E-82, 1-(6-bromopyrazolo[1,5-a]pyridin-3-yl)-3,3-dimethyl-isoquinolin-4-one] | ≥ 80% | ≥ 80% | ≥ 80% | – | ≥ 80% | ≥ 80% | 147 to 149 °C | ≥ 80% | ≥ 80% | ≥ 80% |
| CC1(C)N=C(c2cnc3c(C4CC4)cccn23)c2cccc(F)c2C1(C)C [Compound E-22, 1-(8-cyclopropylimidazo[1,2-a]pyridin-3-yl)-5-fluoro-3,3,4,4-tetramethyl-isoquinoline] | – | ≥ 80% | – | – | – | ≥ 80% | – | ≥ 80% | – | ≥ 80% |
| CC1(C)N=C(c2cnn3cc(Br)ccc23)c2ccccc2C1(F)F [Compound E-81, 1-(6-bromopyrazolo[1,5-a]pyridin-3-yl)-4,4-difluoro-3,3-dimethyl-isoquinoline] | ≥ 80% | ≥ 80% | ≥ 80% | ≥ 50% | ≥ 80% | ≥ 80% | 127 to 129 °C | ≥ 80% | ≥ 80% | ≥ 80% |
| Cc1ccc2c(C3=NC(C)(C)C(F)(F)c4c(F)cccc43)cnn2c1C [Compound E-71, 1-(6,7-dimethylpyrazolo[1,5-a]pyridin-3-yl)-4,4,5-trifluoro-3,3-dimethyl-isoquinoline] | ≥ 80% | ≥ 80% | ≥ 80% | ≥ 50% | ≥ 80% | ≥ 80% | – | ≥ 80% | ≥ 80% | – |
| Cc1cccn2c(C3=NC(C)(C)C(F)(F)c4c(F)cccc43)cnc12 [Compound E-39, 4,4,5-trifluoro-3,3-dimethyl-1-(8-methylimidazo[1,2-a]pyridin-3-yl)isoquinoline] | – | ≥ 80% | – | ≥ 50% | ≥ 80% | ≥ 80% | – | ≥ 80% | ≥ 80% | ≥ 80% |
| CC1(C)N=C(c2cnn3ccccc23)c2ccccc2C1(F)F [Compound E-80, 4,4-difluoro-3,3-dimethyl-1-pyrazolo[1,5-a]pyridin-3-yl-isoquinoline] | ≥ 80% | ≥ 80% | ≥ 80% | – | ≥ 80% | ≥ 80% | 78 to 82 °C | ≥ 80% | ≥ 80% | ≥ 80% |
| CCc1ccc2c(C3=NC(C)(C)C(F)(F)c4ccccc43)cnn2c1 [Compound E-86, 1-(6-ethylpyrazolo[1,5-a]pyridin-3-yl)-4,4-difluoro-3,3-dimethyl-isoquinoline] | ≥ 80% | – | ≥ 80% | ≥ 50% | ≥ 80% | ≥ 80% | – | ≥ 80% | ≥ 80% | ≥ 80% |
| Cc1c(F)ccc2c(C3=NC(C)(C)C(F)(F)c4ccccc43)cnn12 [Compound E-88, 4,4-difluoro-1-(6-fluoro-7-methyl-pyrazolo[1,5-a]pyridin-3-yl)-3,3-dimethyl-isoquinoline] | ≥ 80% | ≥ 80% | ≥ 80% | ≥ 50% | ≥ 80% | ≥ 80% | 115 to 118 °C | ≥ 80% | ≥ 80% | ≥ 80% |
| CC1(C)N=C(c2cnn3cc(Cl)ccc23)c2ccccc2C1(F)F [Compound E-87, 1-(6-chloropyrazolo[1,5-a]pyridin-3-yl)-4,4-difluoro-3,3-dimethyl-isoquinoline] | ≥ 80% | – | ≥ 80% | ≥ 50% | ≥ 80% | ≥ 80% | 113 to 118 °C | ≥ 80% | ≥ 80% | ≥ 80% |
